The results in this text go back to ChEMBL document CHEMBL1146835, “Aspermytin A: a new neurotrophic polyketide isolated from a marine-derived fungus of the genus Aspergillus” (2004).

This assay has as its system PC-12. The experiment in a line: Neurotrophic effect on rat pheochromocytoma (PC-12) cells was expressed as percent cells with neurites after 2 days treatment with 50 uM of compound. In kind it is functional.

SMILES strings stand for the structures.

Turning to `C[C@H]1CCC2[C@@H](C=C[C@@](C)(O)[C@]2(C)C(=O)CCO)C1` (stereo partly specified), the Cells was >50%.
